Measurements from US11708318B2, “Polymorphic forms of RAD1901-2HCL” (Radius Pharmaceuticals, Inc., priority 2017, dated 2023).
Entries after “also recorded” stand apart in the source; their conditions may differ.

Key:
estrogen receptor (ER) = target: T1, estrogen receptor (ER) (Homo sapiens, UniProt P03372); details: cited from earlier work
T1 sequence (P03372 1-595): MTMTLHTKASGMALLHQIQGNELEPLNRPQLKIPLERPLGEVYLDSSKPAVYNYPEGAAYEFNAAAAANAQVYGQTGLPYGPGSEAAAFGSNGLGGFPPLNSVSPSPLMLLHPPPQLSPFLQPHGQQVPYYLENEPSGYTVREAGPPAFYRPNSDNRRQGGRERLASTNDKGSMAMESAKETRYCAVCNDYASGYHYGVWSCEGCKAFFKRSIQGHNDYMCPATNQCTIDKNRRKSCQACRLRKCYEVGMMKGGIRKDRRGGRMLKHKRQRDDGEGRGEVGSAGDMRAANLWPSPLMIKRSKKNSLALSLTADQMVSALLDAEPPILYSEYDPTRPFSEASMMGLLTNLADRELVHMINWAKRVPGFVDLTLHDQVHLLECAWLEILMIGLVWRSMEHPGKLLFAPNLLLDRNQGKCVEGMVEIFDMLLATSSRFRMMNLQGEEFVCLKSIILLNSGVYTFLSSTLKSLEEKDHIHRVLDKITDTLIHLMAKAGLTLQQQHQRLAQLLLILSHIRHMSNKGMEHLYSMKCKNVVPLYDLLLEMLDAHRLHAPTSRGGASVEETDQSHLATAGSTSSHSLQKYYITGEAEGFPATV

[1] = Storage at elevated temperature/humidity, analysed by XRPD; assay type: physicochemical
[2] = Gravimetric Vapour Sorption (GVS), with XRPD of the recovered sample; assay type: physicochemical
Procedure: Sorption isotherms were obtained using a SMS DVS Intrinsic moisture sorption analyzer, controlled by DVS Intrinsic Control software v1.0.1.2 (or v 1.0.1.3). The sample temperature was maintained at 25° C. by the instrument controls. The humidity was controlled by mixing streams of dry and wet nitrogen, with a total flow rate of 200 ml/min. The relative humidity was measured by a calibrated Rotronic probe (dynamic range of 1.0-100% RH), located near the sample. The weight change, (mass relaxation) of the sample as a function of % RH was constantly monitored by the microbalance (accuracy ±0.005 mg).
A sample (e.g., 20 mg) was placed in a tared mesh stainless steel basket under ambient conditions. The sample was loaded and unloaded at 40% RH and 25° C. (typical room conditions). A moisture sorption isotherm was performed as outlined below (2 scans giving 1 complete cycle). Standard isotherms were performed at 25° C. at 10% RH intervals over a 0-90% RH range. Data analysis was carried out using Microsoft Excel using DVS Analysis Suite v6.2 (or 6.1 or 6.0).
In a cycle of 2 scans, the first scan was performed with adsorption of 40-90% RH, followed by a second scan with desorption of 90-0% RH and adsorption of 0-40% RH, with intervals of 10% RH, at 25° C. with stability dm/dt of 0.002% ° C./min. The sorption time was 6 hr time out.
The sample was recovered after completion of the isotherm and re-analyzed by XRPD. Custom moisture sorption methods were also performed at 25° C. at fixed % RH intervals over a 0-95% RH range, with the purpose to fully understand the sorption/desorption behavior of the compound under elevated conditions.
To further explore the humidity behavior of Sample 1 (Form 1) upon exposure to high RH (>90%), custom GVS experiments were designed and carried out. Initially, the sample was treated by holding at 90 and then 95% RH for ˜12 hours to see if hydrate formation could be observed (HighRH method of Steps 1 and 2 of Table 2, FIGS. 6C-6D).
To test the stability of the hydrated state, GVS method HighRH_Desorp_3 was designed with a desorption step and subsequent adsorption (see Table 2 with steps 1-4, FIGS. 6E-6F).
Finally, to ensure complete conversion to the anhydrous and hydrated forms, a GVS experiment was designed to increase both the length of the desorption step at 0% RH, and the adsorption step at 95% RH, respectively (Table 3). Based on the weight stabilization observed in the kinetic plots for Sample 1 in HighRH and HighRH_Desorp_3 methods discussed above (FIGS. 6D and 6F), a holding time of 800 mins at 0% RH and 1600 mins at 95% RH were chosen. A double cycle was also recorded for this experiment to observe whether the sample would return to Form 1 or form a mixed anhydrous/hydrated species (see Table 3, FIGS. 6G-6H).

[3] = Storage at elevated temperature/humidity, analysed by XRPD; assay type: physicochemical; details: 1 week
Procedure: Samples 1 and 2 were characterized by XRPD at various conditions. XRPD patterns were collected for the samples at ambient condition as the samples were provided; at variable temperature (VT-XRPD); at variable humidity (VH-XRPD); after the samples were exposed to 40° C./75% RH for 1 week and 25° C./97% RH for 1 week, respectively; and after a GVS measurement wherein the samples were exposed to 0-90% RH. Samples 1 and 2 were also characterized by ^1H NMR, TGA, DSC, KF, IC, GVS (exposed to 0-90% RH), PLM, SEM, and HPLC (Table 5).

[4] = Variable humidity XRPD (VH-XRPD); assay type: physicochemical
Procedure: Samples run under non-ambient conditions were prepared by gently packing into a cavity, cut into a silicon wafer to obtain a flat surface and mounted onto a humidity stage with an Ansyco controller and humidity sensor positioned directly next to the sample holder. The data were collected at 298.15 K with water temperature of 35.0° C., in an angular range of 3 to 31° 2θ, with a step size of 0.025° 2θ, a collection time of 2.0 sec/step, and a collection time at each % RH was 41 min 28 sec. X-Ray Powder Diffraction (XRPD) patterns were collected at variable humidity values from 0 to 95% RH, based upon the humidity behavior of each compound observed during GVS experiments (described herein). For each Variable Humidity X-Ray Powder Diffraction (VH-XRPD) experiment performed, the % RH values selected are provided alongside the relevant experimental result. Full tables of detailing the % RH value at each collection point and the associated delay time at each value are provided in Tables 10-12. To fully characterize the polymorphic behavior of Samples 1 and 2 at variable humidity, and to collect reference XRPD patterns for the ‘pure’ anhydrous Form 1 and Form 2 material, and ‘pure’ hydrated Form 3 material, Variable Humidity (VH) XRPD experiments were conducted on Samples 1 and 2. Initially, VH-XRPD experiments were conducted using Sample 1, and XRPD diffractograms were collected at selected humidity values, in line with those collected during GVS experiments (see FIGS. 6E-6F). XRPD diffractograms were collected initially at ambient RH, then collected over 24 hours at ˜95% RH and finally collected during desorption steps to 0% RH and over 10 hours at 0% RH (see FIG. 4C). […]

For `CCNCCc1ccc(CN(CC)c2cc(OC)ccc2[C@@H]2CCc3cc(O)ccc3C2)cc1` [RAD1901], the “Selectivity of binding to the estrogen receptor (ER)” value (estrogen receptor (ER)) is listed as “good selectivity”.

For `CCNCCc1ccc(CN(CC)c2cc(OC)ccc2[C@@H]2CCc3cc(O)ccc3C2)cc1.Cl.Cl` [Lyophilization in water], the “XRPD post storage at 25° C./97% RH (10 days)” value ([1]; 25° C./97% RH) was “Consistent with Form 3” and the “XRPD post storage at 40° C./75% RH (10 days)” value ([1]; 40° C./75% RH) was “Consistent with Form 3”.

For `CCNCCc1ccc(CN(CC)c2cc(OC)ccc2[C@@H]2CCc3cc(O)ccc3C2)cc1.Cl.Cl` [Sample 2], the “Hygroscopicity (GVS)” value ([2]; 0-90% RH) was “hygroscopic”, the “XRPD post GVS (uptake 0-90% RH)” value ([2]; after exposure to 0-90% RH) was “mixture of Form 2 and Form 3; also recorded: Mixture of form 2 and 3” and the “XRPD after storage at 25° C./97% RH for 1 week” value ([3]; 25° C./97% RH) was “Form 3 (FIGS. 5B and”. The “XRPD after storage at 40° C./75% RH for 1 week” value ([3]; 40° C./75% RH) was “Form 3 (FIG. 5B)”, the “VH-XRPD at 0% RH” value ([4]; 0% RH) was 5E). Form 2 at 0% RH and the “VH-XRPD at high RH (>90%)” value ([4]; >90% RH (92-93% RH recorded)) was “conversion toward the hydrated state; also recorded: Conversion to Form 3”.
